Read-outs that look alike come from different tables or passages of the source. Where a SMILES comes first, the peptide text is derived from it. [ ]: non-standard residue; d: D form. The star is where a group is joined. Nle = CCCC[CH](N)C(=O)O; Cbz = O=C(OCc1ccccc1)*
How the values were obtained:
[1] = system: SARS-CoV-2 B.1.351 (Beta) variant pseudovirus; assay: organism not typed; type: cell-based; details: Huh-7, read-out: EC50, inhibition of SARS-CoV-2 B.1.351 (Beta) variant pseudovirus infection
[2] = system: SARS-CoV-2 B.1.351 (Beta) variant pseudovirus; assay: organism not typed; type: cell-based; details: A549, read-out: EC50, inhibition of SARS-CoV-2 B.1.351 (Beta) variant pseudovirus infection

Row | Compound | EC50 [1] [µM] | EC50 [2] [µM]
1 | CC(NC(=O)C(Cc1ccccc1)NC(=O)OCc1ccccc1)C(=O)CF (stereo not shown) [Z-FA-FMK] | 10 | 5.31
2 | CC(=O)N[C@@H](CC(C)C)C(=O)N[C@@H](CC(C)C)C(=O)N[C@H](C=O)CCCNC(=N)N [leupeptin hemisulfate] | 17.1 | 7.71
3 | CCCC[C@@H](C=O)NC(=O)[C@H](CC(C)C)NC(=O)OCc1ccccc1 [calpeptin] | 23.9 | 36.4
4 | CC(C)C[C@@H](C=O)NC(=O)[C@H](CC(C)C)NC(=O)[C@H](CC(C)C)NC(=O)OCc1ccccc1 [Mg-132] (Cbz-Leu-Leu-Leu-aldehyde) | 0.901 | 0.908
5 | CCCCC(C=O)NC(=O)C(CC(C)C)NC(=O)C(CC(C)C)NC(C)=O (stereo not drawn) [Mg-101] (Ac-Leu-Leu-[Nle]-aldehyde; configuration not given here) | 0.86 | 1.89

Source: article PMC9110316 (Computational and Structural Biotechnology Journal, 2022)
